This test addresses Arf-GAP with SH3 domain, ANK repeat and PH domain-containing protein 1 (Homo sapiens, UniProt Q9ULH1).

Bounds are passed on as bounds.

Chain of Arf-GAP with SH3 domain, ANK repeat and PH domain-containing protein 1 (Q9ULH1 whole entry, the tested form may be a part): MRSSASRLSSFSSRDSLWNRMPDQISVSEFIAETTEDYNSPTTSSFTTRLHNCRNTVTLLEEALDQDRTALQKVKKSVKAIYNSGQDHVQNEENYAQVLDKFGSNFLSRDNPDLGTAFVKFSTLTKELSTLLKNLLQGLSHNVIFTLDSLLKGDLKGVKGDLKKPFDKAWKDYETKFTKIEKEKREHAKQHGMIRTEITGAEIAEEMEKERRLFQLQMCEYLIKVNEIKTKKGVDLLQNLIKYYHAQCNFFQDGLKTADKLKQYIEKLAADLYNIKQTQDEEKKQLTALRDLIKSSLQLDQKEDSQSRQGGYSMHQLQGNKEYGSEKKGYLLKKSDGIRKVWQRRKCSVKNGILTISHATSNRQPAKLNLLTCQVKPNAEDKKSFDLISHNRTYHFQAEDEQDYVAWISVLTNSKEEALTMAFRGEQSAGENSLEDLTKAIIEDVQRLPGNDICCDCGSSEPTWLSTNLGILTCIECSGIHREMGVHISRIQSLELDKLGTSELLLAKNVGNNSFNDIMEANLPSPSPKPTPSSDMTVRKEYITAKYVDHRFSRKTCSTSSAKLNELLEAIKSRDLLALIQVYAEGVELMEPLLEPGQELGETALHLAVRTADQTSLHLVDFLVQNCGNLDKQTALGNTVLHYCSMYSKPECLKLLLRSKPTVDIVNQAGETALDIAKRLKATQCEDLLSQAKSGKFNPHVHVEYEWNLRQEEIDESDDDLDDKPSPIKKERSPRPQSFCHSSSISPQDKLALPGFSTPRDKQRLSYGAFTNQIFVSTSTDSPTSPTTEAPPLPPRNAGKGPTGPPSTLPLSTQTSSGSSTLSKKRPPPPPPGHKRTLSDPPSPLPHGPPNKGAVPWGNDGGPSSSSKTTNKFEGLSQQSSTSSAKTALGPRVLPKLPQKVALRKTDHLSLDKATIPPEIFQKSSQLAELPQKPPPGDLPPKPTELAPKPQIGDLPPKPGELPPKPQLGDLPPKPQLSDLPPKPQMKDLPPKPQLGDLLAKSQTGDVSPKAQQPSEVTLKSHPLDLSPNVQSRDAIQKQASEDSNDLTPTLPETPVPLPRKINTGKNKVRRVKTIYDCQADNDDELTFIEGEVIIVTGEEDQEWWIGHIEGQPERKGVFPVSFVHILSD

Turning to `O=C(Nc1cccc(-c2csc(Nc3ccc(Cl)cc3)n2)c1)c1ccccc1`, the IC50 is over 165 µM.

The IC50 is the concentration needed to halve the response being measured. A high value points to weaker potency.
